Experimental data taken from publication PMC9120017, “Inhibition mechanism of the chloride channel TMEM16A by the pore blocker 1PBC” (Nature Communications, 2022).
Read-outs that look alike come from different tables or passages of the source.

Target: T1, mouse TMEM16A mutant V543A (Mus musculus, UniProt Q8BHY3, V543A)
T1 construct: expressed in transfected cells; host or cells: HEK293T
T1 sequence (Q8BHY3 1-960 V543A): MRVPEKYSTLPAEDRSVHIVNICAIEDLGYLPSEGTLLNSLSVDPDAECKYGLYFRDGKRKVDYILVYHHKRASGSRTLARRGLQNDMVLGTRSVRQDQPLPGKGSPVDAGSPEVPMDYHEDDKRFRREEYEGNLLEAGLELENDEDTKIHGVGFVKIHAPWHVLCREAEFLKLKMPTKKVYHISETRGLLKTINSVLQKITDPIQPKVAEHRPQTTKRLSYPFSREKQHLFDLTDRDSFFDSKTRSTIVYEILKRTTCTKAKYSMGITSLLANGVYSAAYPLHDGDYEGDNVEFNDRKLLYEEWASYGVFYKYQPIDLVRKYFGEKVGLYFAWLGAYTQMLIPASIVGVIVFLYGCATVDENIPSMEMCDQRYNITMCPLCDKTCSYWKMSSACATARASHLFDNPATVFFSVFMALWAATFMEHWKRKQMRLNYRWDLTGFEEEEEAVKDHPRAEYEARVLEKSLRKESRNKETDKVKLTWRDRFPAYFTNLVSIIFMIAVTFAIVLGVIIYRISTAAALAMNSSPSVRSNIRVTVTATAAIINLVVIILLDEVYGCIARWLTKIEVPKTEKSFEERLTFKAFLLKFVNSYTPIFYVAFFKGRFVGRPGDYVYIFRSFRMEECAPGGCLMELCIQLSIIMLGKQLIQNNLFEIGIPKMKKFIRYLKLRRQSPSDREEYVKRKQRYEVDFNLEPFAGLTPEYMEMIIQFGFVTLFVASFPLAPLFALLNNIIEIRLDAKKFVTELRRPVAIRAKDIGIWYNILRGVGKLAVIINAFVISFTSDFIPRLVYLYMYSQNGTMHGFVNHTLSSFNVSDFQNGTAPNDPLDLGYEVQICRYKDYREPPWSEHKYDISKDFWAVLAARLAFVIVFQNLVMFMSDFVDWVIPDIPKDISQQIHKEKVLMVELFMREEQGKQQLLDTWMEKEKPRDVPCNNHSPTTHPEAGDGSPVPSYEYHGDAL
Test: Inside-out patch recording of 1PBC block, mutant V543A
Assay type: cell-based
Conditions: for remaining activity at 100 µM: 100 µM 1PBC
Description: HEK293T cells (ATCC CRL-1573) were maintained in Dulbecco’s modified Eagle’s medium (DMEM; Sigma-Aldrich) supplemented with 10 U ml^−1 penicillin, 0.1 mg ml^−1 streptomycin (Sigma-Aldrich), 2 mM L-glutamine (Sigma-Aldrich), and 10% FBS (Sigma-Aldrich) in a humidified atmosphere containing 5% CO2 at 37 °C. HEK293S GnTI^− cells (ATCC CRL-3022) were maintained in HyClone HyCell TransFx-H medium (GE Healthcare) supplemented with 10 U ml^−1 penicillin, 0.1 mg ml^−1 streptomycin, 4 mM L-glutamine, 0.15% poloxamer 188 (Sigma-Aldrich), and 1% FBS in an atmosphere containing 5% CO2 at 185 rpm at 37 °C. The ac splice variant of mouse TMEM16A (UniProt ID: Q8BHY3), mouse TMEM16B (UniProt ID: Q8CFW1), or mouse TMEM16F (UniProt ID: Q6P9J9) bearing a 3C cleavage site, a Venus YFP, a Myc tag, and a Streptavidin-binding peptide (SBP) downstream of the open reading frame in a modified pcDNA3.1 vector (Invitrogen) were used as described previously[21],[31]. Mutations were introduced using a modified QuikChange method[58] and were verified by sequencing.
HEK293T cells were transfected with 3–4 μg DNA per 6 cm Petri dish using the calcium phosphate co-precipitation method and were used within 24–96 h after transfection. Recordings were performed on inside-out patches excised from HEK293T cells expressing the construct of interest. Patch pipettes were pulled from borosilicate glass capillaries (O.D. 1.5 mm, I.D. 0.86 mm, Sutter Instrument) and were fire-polished with a microforge (Narishige) before use. Pipette resistance was typically 3–8 MΩ when filled with the recording solutions detailed below. Seal resistance was typically 4 GΩ or higher. Voltage-clamp recordings were made using Axopatch 200B, Digidata 1550, and Clampex 10.7 (Molecular Devices). Analog signals were filtered with the in-built 4-pole Bessel filter at 10 kHz and were digitized at 20 kHz. Solution exchange was achieved using a gravity-fed system through a theta glass pipette mounted on an ultra-fast piezo-driven stepper (Siskiyou). […] All recordings were performed at 20 °C.
A symmetrical ionic condition was used throughout. Stock solution with Ca^2+-EGTA contained 150 mM NaCl, 5.99 mM Ca(OH)2, 5 mM EGTA, and 10 mM HEPES at pH 7.40. Stock solution with EGTA contained 150 mM NaCl, 5 mM EGTA, and 10 mM HEPES at pH 7.40. Free Ca^2+ concentrations were adjusted by mixing the stock solutions at the required ratios calculated using the WEBMAXC program (http://web.stanford.edu/~cpatton/webmaxcS.htm). Patch pipettes were filled with the stock solution with Ca^2+-EGTA, which has a free Ca^2+ concentration of 1 mM. 1PBC (ChemBridge) stock was reconstituted in anhydrous DMSO (Sigma-Aldrich) at 100 mM and stored at −20 °C. Working solutions with 1PBC were prepared by serial dilution. Unless otherwise stated, experiments were performed at a saturating Ca^2+ concentration as shown in Supplementary Table 1 and the primary data were corrected for current rundown as described previously[21],[25].
Concentration-response relations, obtained from the ratio of the I-V plots before and after the application of the blocker, were fitted to the Hill equation,1 I/Imax=1/1+IC50/[blocker]^h where I/Imax is the normalized current responses, IC50 defines the concentration at which inhibition is at its half-maximum, and h is the Hill coefficient.

With `N#Cc1c(C(F)(F)F)cc(O)n2c1nc1ccccc12` [1PBC] the IC50 (0 mV, 15 µM Ca2+) was 11.2 µM, the remaining activity at 3 µM (3 µM 1PBC, +80 mV, saturating Ca2+ (15 µM), read-out: I/Imax) was 76.2% and the remaining activity at 3 µM (3 µM 1PBC, -80 mV, saturating Ca2+ (15 µM), read-out: I/Imax) was 86.2%. The remaining activity at 10 µM (10 µM 1PBC, +80 mV, saturating Ca2+ (15 µM), read-out: I/Imax) was 42.8%, the remaining activity at 10 µM (10 µM 1PBC, -80 mV, saturating Ca2+ (15 µM), read-out: I/Imax) was 67.5% and the remaining activity at 30 µM (30 µM 1PBC, +80 mV, saturating Ca2+ (15 µM), read-out: I/Imax) was 20.1%. It also gave a remaining activity at 30 µM (30 µM 1PBC, -80 mV, saturating Ca2+ (15 µM), read-out: I/Imax) of 43.8%, a remaining activity at 100 µM (+80 mV, saturating Ca2+ (15 µM), read-out: I/Imax) of 6.35% and a remaining activity at 100 µM (-80 mV, saturating Ca2+ (15 µM), read-out: I/Imax) of 18.7%. It also gave a remaining activity at 3 µM (1PBC 3, 0 mV, read-out: fraction of unblocked current) of 79.2%, a remaining activity at 3 µM (1PBC 3, 20 mV, read-out: fraction of unblocked current) of 77.2% and a remaining activity at 3 µM (1PBC 3, 40 mV, read-out: fraction of unblocked current) of 76.3%. The remaining activity at 3 µM (1PBC 3, 60 mV, read-out: fraction of unblocked current) was 75.5%, the remaining activity at 3 µM (1PBC 3, 80 mV, read-out: fraction of unblocked current) was 76.2% and the remaining activity at 3 µM (1PBC 3, 100 mV, read-out: fraction of unblocked current) was 78.6%. For the same compound, the remaining activity at 3 µM (1PBC 3, 120 mV, read-out: fraction of unblocked current) was 80.1%, the remaining activity at 3 µM (1PBC 3, 140 mV, read-out: fraction of unblocked current) was 83.1% and the remaining activity at 3 µM (1PBC 3, -20 mV, read-out: fraction of unblocked current) was 81.1%. For the same compound, the remaining activity at 3 µM (1PBC 3, -40 mV, read-out: fraction of unblocked current) was 83.5%, the remaining activity at 3 µM (1PBC 3, -60 mV, read-out: fraction of unblocked current) was 84.9% and the remaining activity at 3 µM (1PBC 3, -80 mV, read-out: fraction of unblocked current) was 86.2%. For the same compound, the remaining activity at 3 µM (1PBC 3, -100 mV, read-out: fraction of unblocked current) was 87.3%, the remaining activity at 3 µM (1PBC 3, -120 mV, read-out: fraction of unblocked current) was 88.4% and the remaining activity at 3 µM (1PBC 3, -140 mV, read-out: fraction of unblocked current) was 89.4%. The remaining activity at 10 µM (1PBC 10, 0 mV, read-out: fraction of unblocked current) was 52.5%, the remaining activity at 10 µM (1PBC 10, 20 mV, read-out: fraction of unblocked current) was 48.7% and the remaining activity at 10 µM (1PBC 10, 40 mV, read-out: fraction of unblocked current) was 45.6%. For the same compound, the remaining activity at 10 µM (1PBC 10, 60 mV, read-out: fraction of unblocked current) was 43.7%, the remaining activity at 10 µM (1PBC 10, 80 mV, read-out: fraction of unblocked current) was 42.8% and the remaining activity at 10 µM (1PBC 10, 100 mV, read-out: fraction of unblocked current) was 43.3%. For the same compound, the remaining activity at 10 µM (1PBC 10, 120 mV, read-out: fraction of unblocked current) was 44.7%, the remaining activity at 10 µM (1PBC 10, 140 mV, read-out: fraction of unblocked current) was 45.8% and the remaining activity at 10 µM (1PBC 10, -20 mV, read-out: fraction of unblocked current) was 56.4%. For the same compound, the remaining activity at 10 µM (1PBC 10, -40 mV, read-out: fraction of unblocked current) was 60.6%, the remaining activity at 10 µM (1PBC 10, -60 mV, read-out: fraction of unblocked current) was 64.3% and the remaining activity at 10 µM (1PBC 10, -80 mV, read-out: fraction of unblocked current) was 67.5%. It also gave a remaining activity at 10 µM (1PBC 10, -100 mV, read-out: fraction of unblocked current) of 70.7%, a remaining activity at 10 µM (1PBC 10, -120 mV, read-out: fraction of unblocked current) of 73.2% and a remaining activity at 10 µM (1PBC 10, -140 mV, read-out: fraction of unblocked current) of 75.5%. It also gave a remaining activity at 30 µM (1PBC 30, 0 mV, read-out: fraction of unblocked current) of 27.4%, a remaining activity at 30 µM (1PBC 30, 20 mV, read-out: fraction of unblocked current) of 23.9% and a remaining activity at 30 µM (1PBC 30, 40 mV, read-out: fraction of unblocked current) of 21.7%. It also gave a remaining activity at 30 µM (1PBC 30, 60 mV, read-out: fraction of unblocked current) of 20.8%, a remaining activity at 30 µM (1PBC 30, 80 mV, read-out: fraction of unblocked current) of 20.1% and a remaining activity at 30 µM (1PBC 30, 100 mV, read-out: fraction of unblocked current) of 20.1%. The remaining activity at 30 µM (1PBC 30, 120 mV, read-out: fraction of unblocked current) was 21.6%, the remaining activity at 30 µM (1PBC 30, 140 mV, read-out: fraction of unblocked current) was 22.4% and the remaining activity at 30 µM (1PBC 30, -20 mV, read-out: fraction of unblocked current) was 30.9%. The remaining activity at 30 µM (1PBC 30, -40 mV, read-out: fraction of unblocked current) was 34.9%.
